From ChEMBL document CHEMBL5050861 (2021) come the findings set out here.

Data set [1] is described as follows: Inhibition of recombinant mouse GALK1 using ATP as substrate incubated for 1 hr and measured by Kinase-Glo assay. Particulars: read-out: IC50. On the technique in general: Kinase-Glo measures the ATP left after a reaction by luminescence.
A short description of data set [2]: Stability of compound in rat microsomes assessed as half-life. Format: ADME, Microsome.
Data set [3] in a line: Kinetic aqueous solubility of the compound. Format: physicochemical. The note with it: buffer; read-out: Kinetic_solubility.
Data set [4] in a line: Permeability of compound by PAMPA assay. Particulars: for Papp: read-out: permeability. It counts as ADME. Background: The PAMPA barrier holds no transporters, so it reflects passive diffusion.

Values after ≈ are worked out from the molar mass of the structure shown. A value given as a limit tells only on which side of the number the result lay.

Broadly, the IC50 is the point on the concentration scale where inhibition reaches its midpoint. The term half-life denotes the time in which the quantity being followed falls by half. In the case of `CC1=C(C(=O)Nc2cc(C(=O)O)ccn2)[C@H](c2ccc(C)cc2Cl)N=C(Nc2nc3ccc(F)cc3o2)N1`, in data set [1], the IC50 is 1.37 µM. In addition, the half-life in data set [2] is above 30 min. Also, the solubility kinetic in data set [3] was above 79 µg/mL. Also, the Papp in data set [4] was below 1 ×10⁻⁶ cm/s.
Consider `CC1=C(C(=O)Nc2ccccc2CO)C(c2ccccc2Cl)N=C(Nc2nc3ccccc3o2)N1` (configuration not stated), for which the IC50 in data set [1] amounted to 17.2 µM. In addition, the half-life in data set [2] is 7.71 min. The solubility kinetic in data set [3] was below 1 µg/mL. Further, the permeability in data set [4] is 1038.5 10^-6 cm/s.
On to `CC1=C(C(=O)Nc2nncs2)C(c2ccc(C)cc2Cl)N=C(Nc2nc3ccccc3o2)N1` (configuration not stated), for which the IC50 in data set [1] was 6.11 µM. In addition, in data set [2], the half-life is above 30 min. Further, in data set [3], the solubility kinetic was below 1 µg/mL. For the same compound, the Papp in data set [4] is below 14.4 ×10⁻⁶ cm/s.
For `CC1=C(C(=O)Nc2cc(C(=O)O)ccn2)C(c2ccc(-c3cnc(C)nc3)cc2Cl)N=C(Nc2nc3ccc(F)cc3o2)N1` (configuration not stated), in that order: 0.69 µM, above 30 min, above 90 µg/mL and below 1 ×10⁻⁶ cm/s.
For `CC1=C(C(=O)Nc2cc(B(O)O)ccn2)C(c2ccc(C)cc2Cl)N=C(Nc2nc3ccc(F)cc3o2)N1` (configuration not stated), the IC50 in data set [1] is 10.9 µM. In addition, the half-life in data set [2] is 14.1 min. The solubility kinetic in data set [3] is below 1 µg/mL. Further, in data set [4], the Papp is below 3.2 ×10⁻⁶ cm/s.
For `CC1=C(C(=O)Nc2cc(C(=O)O)ccn2)C(c2ccc(C#N)cc2Cl)N=C(Nc2nc3ccc(F)cc3o2)N1` (configuration not stated), in that order: 3.85 µM, above 30 min, above 81 µg/mL and below 1 ×10⁻⁶ cm/s.
As for `CCOC(=O)c1nnc(NC(=O)C2=C(C)NC(Nc3nc4ccccc4o3)=NC2c2ccccc2Cl)s1` (configuration not stated), in data set [1], the concentration for half-maximal inhibition (IC50) was 10.7 µM. Besides, the half-life in data set [2] amounted to 3.16 min. Moreover, in data set [3], the solubility kinetic was below 1 µg/mL. Besides, in data set [4], the Papp is below 2.7 ×10⁻⁶ cm/s.
The matching figures for `O=C1CC(C(=O)Nc2nncs2)CC2=C1C(c1ccccc1Cl)N=C(Nc1nc3ccccc3o1)N2` (configuration not stated): 12.2 µM, above 30 min, 1.23 µg/mL (≈ 2.37 µM) and below 5 ×10⁻⁶ cm/s.
The matching figures for `CC1=C(C(=O)Nc2cc(C(=O)O)ccn2)C(c2ccc(C)cc2Cl)N=C(Nc2nc3c(o2)CCCC3)N1` (configuration not stated): 4.32 µM, above 30 min, above 52 µg/mL and below 1.8 ×10⁻⁶ cm/s.
The matching figures for `CCOC(=O)N1C(Nc2nc3ccccc3o2)=NC(c2ccccc2Cl)C(C(=O)Nc2cc(C(=O)O)ccn2)=C1C` (configuration not stated): 19.3 µM, above 30 min, above 85 µg/mL and below 1 ×10⁻⁶ cm/s.
For the compound `CC1=C(C(=O)Nc2cc(C(=O)O)ccn2)C(c2ccc(C)cc2Cl)N=C(Nc2nc3ncccc3o2)N1` (configuration not stated), in data set [1], the 50% inhibitory concentration (IC50) stood at 19.3 µM. Moreover, in data set [2], the half-life was above 30 min. The solubility kinetic in data set [3] was above 51 µg/mL. For the same compound, the Papp in data set [4] was below 1 ×10⁻⁶ cm/s.
In the case of `CC1=C(C(=O)Nc2cc(C(=O)O)ccn2)[C@@H](c2ccc(C)cc2Cl)N=C(Nc2nc3ccc(F)cc3o2)N1`, the 50% inhibitory concentration (IC50) in data set [1] was determined as 6.85 µM. Moreover, in data set [2], the half-life was above 30 min. Moreover, the solubility kinetic in data set [3] stood at 53.8 µg/mL (≈ 101 µM). Also, in data set [4], the Papp is below 1 ×10⁻⁶ cm/s.
`CC1=C(C(=O)Nc2cccc(C(=O)O)n2)C(c2ccccc2Cl)N=C(Nc2nc3ccccc3o2)N1` (configuration not stated): in data set [1], the IC50 worked out at 6.85 µM. Moreover, the half-life in data set [2] was above 30 min. Moreover, in data set [3], the solubility kinetic was determined as 60 µg/mL (≈ 119 µM). Further, the Papp in data set [4] was below 1 ×10⁻⁶ cm/s.
The matching figures for `CC1=C(C(=O)Nc2cc(C(=O)O)ccn2)[C@@H](c2ccccc2Cl)N=C(Nc2nc3cccc(N)c3o2)N1`: 34.4 µM, above 30 min, above 76 µg/mL and below 1.3 ×10⁻⁶ cm/s.
The matching figures for `CC1=C(C(=O)NCc2cccc(C(=O)O)c2)C(c2ccccc2Cl)N=C(Nc2nc3ccccc3o2)N1` (configuration not stated): 19.3 µM, above 30 min, 60.6 µg/mL (≈ 117 µM) and below 1.3 ×10⁻⁶ cm/s.
For `CC1=C(C(=O)Nc2ccc([N+](=O)[O-])cc2)C(c2ccccc2Cl)N=C(Nc2nc3ccccc3o2)N1` (configuration not stated), in that order: 3.43 µM, above 30 min, below 1 µg/mL and below 7.3 ×10⁻⁶ cm/s.
`COc1ccc2nc(NC3=NC(c4ccccc4Cl)C(C(=O)Nc4cc(C(=O)O)ccn4)=C(C)N3)oc2c1` (configuration not stated): the 50% inhibitory concentration (IC50) in data set [1] came out at 21.7 µM. Further, the half-life in data set [2] was above 30 min. In data set [3], the solubility kinetic was above 79 µg/mL. Besides, in data set [4], the Papp is below 1 ×10⁻⁶ cm/s.
The matching figures for `CCOc1ccc(C2N=C(Nc3nc4ccc(F)cc4o3)NC(C)=C2C(=O)Nc2cc(C(=O)O)ccn2)c(Cl)c1` (configuration not stated): 3.85 µM, above 30 min, 11.3 µg/mL (≈ 20 µM) and below 1 ×10⁻⁶ cm/s.
As to `CC1=C(C(=O)Nc2cc(C(=O)O)ccn2)[C@@H](c2ccccc2Cl)N=C(Nc2nc3ccccc3o2)N1`, the half-maximal inhibitory concentration (IC50) in data set [1] was found to be 19.3 µM. In data set [2], the half-life is above 30 min. In addition, the solubility kinetic in data set [3] was above 74 µg/mL. Besides, the Papp in data set [4] is below 1 ×10⁻⁶ cm/s.
For `CC1=C(C(=O)Nc2cc(C(=O)O)ccn2)C(c2ccc(C(F)(F)F)cc2Cl)N=C(Nc2nc3ccc(F)cc3o2)N1` (configuration not stated), in that order: 10.9 µM, above 30 min, 19.4 µg/mL (≈ 32.9 µM) and below 1 ×10⁻⁶ cm/s.
The matching figures for `O=C1CC(C(=O)O)CC2=C1C(c1ccccc1Cl)N=C(Nc1nc3ccccc3o1)N2` (configuration not stated): 6.85 µM, above 30 min, 52.6 µg/mL (≈ 120 µM) and below 1 ×10⁻⁶ cm/s.
The matching figures for `CC1=C(C(=O)Nc2cccc(-c3cn[nH]c3)c2)C(c2ccccc2Cl)N=C(Nc2nc3ccccc3o2)N1` (configuration not stated): 38.5 µM, above 30 min, below 1 µg/mL and below 25.4 ×10⁻⁶ cm/s.
Consider `CC1=C(C(=O)Nc2cc(C(=O)O)ccn2)[C@H](c2ccccc2Cl)N=C(Nc2nc3ccccc3o2)N1`, for which the IC50 in data set [1] came out at 3.43 µM. In addition, the half-life in data set [2] is above 30 min. Further, the solubility kinetic in data set [3] was above 74 µg/mL. Also, in data set [4], the Papp was below 1 ×10⁻⁶ cm/s.
As to `CC1=C(C(=O)Nc2nnc(-c3cccnc3)s2)C(c2ccccc2Cl)N=C(Nc2nc3ccccc3o2)N1` (configuration not stated), the IC50 in data set [1] was determined as 9.68 µM. Moreover, in data set [2], the half-life was above 30 min. For the same compound, in data set [3], the solubility kinetic was below 1 µg/mL. The Papp in data set [4] is below 3.7 ×10⁻⁶ cm/s.
The matching figures for `COC(=O)Cc1cccc(NC(=O)C2=C(C)NC(Nc3nc4ccccc4o3)=NC2c2ccccc2Cl)c1` (configuration not stated): 13.7 µM, 10.3 min, below 1 µg/mL and below 17.4 ×10⁻⁶ cm/s.
`CC1=C(C(=O)Nc2ccc(Br)cc2)C(c2ccccc2Cl)N=C(Nc2nc3ccccc3o2)N1` (configuration not stated): the IC50 in data set [1] stood at 15.3 µM. The half-life in data set [2] is above 30 min. The solubility kinetic in data set [3] is below 1 µg/mL. Moreover, the Papp in data set [4] was below 14.9 ×10⁻⁶ cm/s.
In the case of `COP(=O)(OC)C1=C(C)NC(Nc2nc3ccccc3o2)=NC1c1ccccc1Cl` (configuration not stated), the half-maximal inhibitory concentration (IC50) in data set [1] is 13.7 µM. Also, the half-life in data set [2] worked out at 5.35 min. The solubility kinetic in data set [3] is 12.2 µg/mL (≈ 27.3 µM). Also, the permeability in data set [4] is on record as 1813.86 10^-6 cm/s.
In the case of `CC1=C(C(=O)Nc2ccc(C(=O)O)cn2)C(c2ccccc2Cl)N=C(Nc2nc3ccc(F)cc3o2)N1` (configuration not stated), in data set [1], the IC50 was determined as 3.43 µM. Also, the half-life in data set [2] was above 30 min. The solubility kinetic in data set [3] is above 77 µg/mL. Moreover, the Papp in data set [4] is below 1 ×10⁻⁶ cm/s.
